Source: PMC6445713 (Molecular cancer research : MCR, 2018)
pIC50: −log10 of the molar value. *1 amine or outer side, *2 acyl side, *3 side chain or, on linkers, in order; H or OH if unused. Where a SMILES comes first, the peptide text is derived from it. Bridges are numbered along the chain shown (N, C = ends). [ ]: non-standard residue; d: D form. The star is where a group is joined. Leu(3R-OH,Nα-propionyl) = CCC(=O)N[C@H](C(=O)*)[C@H](O)C(C)C; X1 = CC(C)[C@@H](O[*:3])[C@H](N[*:1])C(=O)[*:2]; NMeT = CN[C@H](C(=O)O)[C@@H](C)O; dPhLac = O=C(O)[C@H](O)Cc1ccccc1; NMeA = CN[C@@H](C)C(=O)O; NMeDha = C=C(NC)C(=O)O

What was measured:
Gαq [1] = target: Gαq (Rattus norvegicus, UniProt P82471); assay: […]GTPγS filter-binding assay with purified protein preincubated with FR; assay type: biochemical
Gαq-Q209L (GαqΔ34-Q209L) [2] = target: T1, Gαq-Q209L (GαqΔ34-Q209L) (Mus musculus, UniProt P21279, Q209L); assay: as above; assay type: biochemical
T1 sequence (P21279 35-359 Q209L): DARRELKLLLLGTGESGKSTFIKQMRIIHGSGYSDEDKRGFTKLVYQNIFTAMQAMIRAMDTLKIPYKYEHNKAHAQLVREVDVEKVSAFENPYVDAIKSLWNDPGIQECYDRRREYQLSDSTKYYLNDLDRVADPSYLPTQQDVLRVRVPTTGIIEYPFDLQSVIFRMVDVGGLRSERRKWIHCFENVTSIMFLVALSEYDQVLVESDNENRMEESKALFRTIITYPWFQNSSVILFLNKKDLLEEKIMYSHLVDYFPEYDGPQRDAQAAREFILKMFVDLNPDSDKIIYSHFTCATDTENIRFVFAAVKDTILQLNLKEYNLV

Gαq-Q209L (GαqΔ34-Q209L) [3] = target: T1, Gαq-Q209L (GαqΔ34-Q209L); assay: […]GTPγS radioligand filter binding
Gαq [4] = target: T2, Gαq (Rattus norvegicus, UniProt P82471); assay: […]GTPγS radioligand filter binding
T2 sequence (P82471 1-359): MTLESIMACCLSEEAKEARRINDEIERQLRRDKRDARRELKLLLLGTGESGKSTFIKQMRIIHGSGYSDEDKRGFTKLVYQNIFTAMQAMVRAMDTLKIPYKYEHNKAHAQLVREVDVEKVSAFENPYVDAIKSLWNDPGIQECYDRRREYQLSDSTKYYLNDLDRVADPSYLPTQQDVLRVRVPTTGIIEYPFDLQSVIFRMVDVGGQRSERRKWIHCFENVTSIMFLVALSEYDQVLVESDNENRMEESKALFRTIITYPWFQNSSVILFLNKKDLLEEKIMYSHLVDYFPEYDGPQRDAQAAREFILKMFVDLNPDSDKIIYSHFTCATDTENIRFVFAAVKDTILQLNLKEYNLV

SMILES | pIC50 (Gαq [1]) | pIC50 (Gαq-Q209L (GαqΔ34-Q209L) [2]) | [35S]GTPγS radioligand filter binding (Gαq-Q209L (GαqΔ34-Q209L) [3]) | [35S]GTPγS radioligand filter binding (Gαq [4])
C=C1C(=O)N[C@@H](C)C(=O)N(C)[C@@H](C)C(=O)N[C@@H]([C@H](OC(=O)[C@@H](NC(=O)CC)[C@H](O)C(C)C)C(C)C)C(=O)N(C)[C@@H]([C@@H](C)OC)C(=O)O[C@H](C(C)C)[C@H](NC(C)=O)C(=O)O[C@H](Cc2ccccc2)C(=O)N1C [FR, FR900359] (Ac-[X1][dPhLac][NMeDha]A[NMeA][X1](Leu(3R-OH,Nα-propionyl))[NMeT](Me); ester 1-C) | ~7.12 | ~7.12 |  | 
Nc1nc2c(ncn2[C@@H]2O[C@H](COP(=O)(O)OP(=O)(O)OP(O)(O)=S)[C@@H](O)[C@H]2O)c(=O)[nH]1 [GTPγS] |  |  | GTPγS binding of purified Gαq and Gαq-Q209L was measured using a filter-binding method | GTPγS binding of purified Gαq and Gαq-Q209L was measured using a filter-binding method
